Reference: ChEMBL document CHEMBL1201862, “PubChem BioAssay data set” (2004)
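Growth conditions: 96-well plates. Treatment: test compound, 48 hours, 5 concentrations. Analysis: linear interpolation between bracketing concentrations; unreached endpoints set to highest concentration. At the GI50, growth is halved.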 Activity calls are given as the source filed them. Cut-off read from the data, not from the text of the source: active = GI50 up to about 1.1 µM and inactive = higher.

Experiments:
Assay in all cases: DTP human tumour cell line panel, 48 h
SK-MEL-5 = tested on: SK-MEL-5
UO-31 = tested on: UO-31
DMS-114 = tested on: DMS-114
NCI-H226 = tested on: NCI-H226
HCC 2998 = tested on: HCC 2998
HCT-15 = tested on: HCT-15
SF-295 = tested on: SF-295
HOP-62 = tested on: HOP-62
A498 = tested on: A498
TK-10 = tested on: TK-10
RXF 393 = tested on: RXF 393
OVCAR-8 = tested on: OVCAR-8
LOX IMVI = tested on: LOX IMVI
HT-29 = tested on: HT-29
CCRF-CEM = tested on: CCRF-CEM
OVCAR-3 = tested on: OVCAR-3
UACC-62 = tested on: UACC-62
A549 = tested on: A549
NCI-H23 = tested on: NCI-H23
CAKI-1 = tested on: CAKI-1
SN12C = tested on: SN12C
KM12 = tested on: KM12
NCI-H460 = tested on: NCI-H460
SK-MEL-28 = tested on: SK-MEL-28
Malme-3M = tested on: Malme-3M
OVCAR-4 = tested on: OVCAR-4
KM-20L2 = tested on: KM-20L2
IGROV-1 = tested on: IGROV-1
DLD-1 = tested on: DLD-1
HL-60 = tested on: HL-60
SK-OV-3 = tested on: SK-OV-3
LXFL 529 = tested on: LXFL 529
SF-268 = tested on: SF-268
K562 = tested on: K562
DMS-273 = tested on: DMS-273
M19-MEL = tested on: M19-MEL
M14 = tested on: M14
NCI-H522 = tested on: NCI-H522
SW-620 = tested on: SW-620
HOP-92 = tested on: HOP-92
RPMI-8226 = tested on: RPMI-8226
COLO 205 = tested on: COLO 205
SNB-75 = tested on: SNB-75
U-251 = tested on: U-251
SNB-19 = tested on: SNB-19
786-0 = tested on: 786-0
ACHN = tested on: ACHN
EKVX = tested on: EKVX
XF498 = tested on: XF498
SK-MEL-2 = tested on: SK-MEL-2
UACC-257 = tested on: UACC-257
OVCAR-5 = tested on: OVCAR-5
SF-539 = tested on: SF-539
HCT-116 = tested on: HCT-116
PC-3 = tested on: PC-3
MDA-N = tested on: MDA-N
MOLT-4 = tested on: MOLT-4
MCF7 = tested on: MCF7
BT-549 = tested on: BT-549
SR = tested on: SR
MDA-MB-231 = tested on: MDA-MB-231
NCI/ADR-RES = tested on: NCI/ADR-RES
DU-145 = tested on: DU-145
SNB-78 = tested on: SNB-78
T47D = tested on: T47D

With `O=C1CCC2(CC1)SCCCS2` the GI50 (SK-MEL-5) was > 100 µM (inactive), the GI50 (UO-31) was > 100 µM (inactive) and the GI50 (DMS-114) was > 100 µM (inactive). The GI50 (NCI-H226) was > 100 µM (inactive), the GI50 (HCC 2998) was > 100 µM (inactive) and the GI50 (HCT-15) was over 100 µM. The GI50 (SF-295) was > 100 µM (inactive), the GI50 (HOP-62) was > 100 µM (inactive) and the GI50 (A498) was > 100 µM (inactive). The GI50 (TK-10) was > 100 µM (inactive), the GI50 (RXF 393) was > 100 µM (inactive) and the GI50 (OVCAR-8) was > 100 µM (inactive). The GI50 (LOX IMVI) was > 100 µM (inactive), the GI50 (HT-29) was > 100 µM (inactive) and the GI50 (CCRF-CEM) was > 100 µM (inactive). The GI50 (OVCAR-3) was > 100 µM (inactive), the GI50 (UACC-62) was > 100 µM (inactive) and the GI50 (A549) was > 100 µM (inactive). The GI50 (NCI-H23) was > 100 µM (inactive), the GI50 (CAKI-1) was > 100 µM (inactive) and the GI50 (SN12C) was > 100 µM (inactive). The GI50 (KM12) was > 100 µM (inactive), the GI50 (NCI-H460) was > 100 µM (inactive) and the GI50 (SK-MEL-28) was > 100 µM (inactive). For the same compound, the GI50 (Malme-3M) was > 100 µM (inactive), the GI50 (OVCAR-4) was > 100 µM (inactive) and the GI50 (KM-20L2) was > 100 µM (inactive). For the same compound, the GI50 (IGROV-1) was > 100 µM (inactive), the GI50 (DLD-1) was > 100 µM (inactive) and the GI50 (HL-60) was > 100 µM (inactive). For the same compound, the GI50 (SK-OV-3) was > 100 µM (inactive), the GI50 (LXFL 529) was > 100 µM (inactive) and the GI50 (SF-268) was > 100 µM (inactive). For the same compound, the GI50 (K562) was > 100 µM (inactive), the GI50 (DMS-273) was > 100 µM (inactive) and the GI50 (M19-MEL) was > 100 µM (inactive). The GI50 (M14) was > 100 µM (inactive), the GI50 (NCI-H522) was > 100 µM (inactive) and the GI50 (SW-620) was > 100 µM (inactive). The GI50 (HOP-92) was > 100 µM (inactive), the GI50 (RPMI-8226) was > 100 µM (inactive) and the GI50 (COLO 205) was > 100 µM (inactive). The GI50 (SNB-75) was 61.1 µM (inactive), the GI50 (U-251) was > 100 µM (inactive) and the GI50 (SNB-19) was > 100 µM (inactive). For the same compound, the GI50 (786-0) was > 100 µM (inactive), the GI50 (ACHN) was 40 µM (inactive) and the GI50 (EKVX) was > 100 µM (inactive). The GI50 (XF498) was > 100 µM (inactive), the GI50 (SK-MEL-2) was > 100 µM (inactive) and the GI50 (UACC-257) was > 100 µM (inactive). The GI50 (OVCAR-5) was > 100 µM (inactive).

`CCOC(=O)CSc1nnc(CSc2nc(-c3ccccc3)c(-c3ccccc3)[nH]2)n1-c1ccccc1` was tested, and the GI50 (SK-MEL-5) was > 100 µM (inactive), the GI50 (UO-31) was 18.2 µM (inactive) and the GI50 (DMS-114) was 15.3 µM (inactive). The GI50 (SF-539) was 20.7 µM (inactive), the GI50 (NCI-H226) was 42.3 µM (inactive) and the GI50 (HCC 2998) was 19.5 µM (inactive). The GI50 (HCT-15) was over 100 µM, the GI50 (SF-295) was > 100 µM (inactive) and the GI50 (HOP-62) was > 100 µM (inactive). For the same compound, the GI50 (HCT-116) was > 56.5 µM (inactive), the GI50 (A498) was 17.9 µM (inactive) and the GI50 (PC-3) was 20.7 µM (inactive). For the same compound, the GI50 (TK-10) was 17 µM (inactive), the GI50 (RXF 393) was 22.5 µM (inactive) and the GI50 (OVCAR-8) was 18.7 µM (inactive). The GI50 (LOX IMVI) was > 61.5 µM (inactive), the GI50 (HT-29) was 48.8 µM (inactive) and the GI50 (MDA-N) was 75.3 µM (inactive). The GI50 (CCRF-CEM) was > 54 µM (inactive), the GI50 (OVCAR-3) was > 100 µM (inactive) and the GI50 (UACC-62) was 27.2 µM (inactive). For the same compound, the GI50 (A549) was > 100 µM (inactive), the GI50 (NCI-H23) was > 100 µM (inactive) and the GI50 (MOLT-4) was > 49.8 µM (inactive). The GI50 (MCF7) was 66.4 µM (inactive), the GI50 (SN12C) was 18.9 µM (inactive) and the GI50 (KM12) was > 75.9 µM (inactive). For the same compound, the GI50 (NCI-H460) was > 100 µM (inactive), the GI50 (SK-MEL-28) was > 58.7 µM (inactive) and the GI50 (Malme-3M) was > 69.2 µM (inactive). For the same compound, the GI50 (OVCAR-4) was 22.1 µM (inactive), the GI50 (KM-20L2) was 27.7 µM (inactive) and the GI50 (BT-549) was > 100 µM (inactive). The GI50 (IGROV-1) was > 83 µM (inactive), the GI50 (SR) was 39.4 µM (inactive) and the GI50 (MDA-MB-231) was 34.5 µM (inactive). For the same compound, the GI50 (NCI/ADR-RES) was 61.9 µM (inactive), the GI50 (DLD-1) was > 100 µM (inactive) and the GI50 (HL-60) was 49.5 µM (inactive). The GI50 (SK-OV-3) was 23.4 µM (inactive), the GI50 (LXFL 529) was 21.1 µM (inactive) and the GI50 (SF-268) was 26.1 µM (inactive). For the same compound, the GI50 (K562) was > 100 µM (inactive), the GI50 (DU-145) was 15.4 µM (inactive) and the GI50 (SNB-78) was 27.9 µM (inactive). For the same compound, the GI50 (DMS-273) was > 100 µM (inactive), the GI50 (M19-MEL) was 38.8 µM (inactive) and the GI50 (M14) was > 45 µM (inactive). For the same compound, the GI50 (NCI-H522) was > 87.7 µM (inactive), the GI50 (SW-620) was > 100 µM (inactive) and the GI50 (HOP-92) was 40.4 µM (inactive). The GI50 (RPMI-8226) was > 80.4 µM (inactive), the GI50 (COLO 205) was > 58.2 µM (inactive) and the GI50 (T47D) was 26.7 µM (inactive). The GI50 (SNB-75) was > 100 µM (inactive), the GI50 (U-251) was > 100 µM (inactive) and the GI50 (SNB-19) was > 100 µM (inactive). For the same compound, the GI50 (786-0) was 24.6 µM (inactive), the GI50 (ACHN) was 18.3 µM (inactive) and the GI50 (EKVX) was > 100 µM (inactive). The GI50 (XF498) was 24.3 µM (inactive), the GI50 (SK-MEL-2) was > 31.6 µM (inactive) and the GI50 (UACC-257) was 29.3 µM (inactive). The GI50 (OVCAR-5) was > 59.2 µM (inactive).
